From a melting point compilation (Tetko et al.; mined from patent text by program, amines drawn as free bases though some values may be those of a salt) come the findings set out here.

Non-standard residues stand in square brackets, D forms with d. Residues, ends and D or L forms follow the SMILES beside them. *: point of attachment. Tos = Cc1ccc(S(=O)(=O)*)cc1; OBn = c1ccc(CO*)cc1; Sar = CNCC(=O)O

For `N#Cc1cccc(OCc2cccc(OCc3ccc4ccccc4n3)c2)c1`, the melting point lay in the range of 86 to 87 °C.
`CCCc1nn(C)c2c(=O)[nH]c(-c3cc(S(=O)(=O)Cl)cc4c3OCC4)nc12` displayed a melting point of 221 to 222 °C.
As for `COC(=O)c1nnn(C)c1C(=O)OC`, the melting point is 63 to 64 °C.
Turning to `C=CC(=O)NCc1cc([N+](=O)[O-])ccc1C`, the melting point lay in the range of 155 to 158 °C.
With `CC(=O)N[C@H]1C[C@@H](c2cc(NC(=O)Cc3cccc4ccccc34)n[nH]2)C1` the figure was 209 °C.
Consider `CCOC(=O)C(C(=O)CCCC(C)C)C1c2ccccc2C(=O)N1c1ccc2ccc(Cl)nc2n1` (centres undefined), for which the melting point was determined as 135 °C.
`Cc1cc(C)c(C(O)c2cc(-n3ccnc3)ccc2C)c(C)c1` (centres undefined): the melting point lay in the range of 190 to 191 °C.
In the case of `CC(=O)OC1CC2(C)C(CCC2(O)C(C)=O)C2CCC3=CC(=O)CCC3(C)C12` (centres undefined), the melting point worked out at 160 °C.
Compound `CCCCN(C(=O)NC)c1ccc(Cl)c(Cl)c1` displayed a melting point of 58 °C.
With `COC1CC2(C)C(CCC3C4CC=C(C(C)=O)C4(C)CCC32)CC1O` (centres undefined) the figure was 183 to 187 °C; with `CCc1nc2c(C)c([N+](=O)[O-])c(C)nc2[nH]1`, 146 to 149 °C.
On to `CC(C)n1c(=O)[nH]c2cccc(OCc3ccccc3)c21`, for which the melting point stood at 224 °C.
As for `CCC(c1cc2c(-c3ccc(C(F)(F)F)n(C)c3=O)c(F)cc(Cl)c2o1)S(C)(=O)=O` (centres undefined), the melting point lay in the range of 146 to 148 °C.
`CCCc1cc(F)c2oc(Cc3ccc(OC)cc3)c(C)c2c1OC(C)=O` showed a melting point of 85 to 88 °C.
With `Nc1ccc(OCc2nc3ccccc3s2)cc1` the figure was 87 to 89 °C; with `COc1cc(C(C)C)c2c(c1)S(=O)(=O)N(COc1cc(C#N)nn1-c1ccccc1)C2=O`, 114 to 116 °C; with `COc1ccc(-c2csc(Nc3cc4ccccc4cn3)n2)cc1OC`, 200 to 203 °C.
The compound `CCc1cc2c(s1)-n1c(C)nnc1C(CC(=O)O)N=C2c1ccc(Cl)cc1` (centres undefined) showed a melting point of 198 to 202 °C.
`CCCOCCOc1ccc(-c2ccc3c(c2)C=C(C(=O)O)CCCN3CCC)cc1` had a melting point of 202 to 204 °C.
The value for `CN1CCN(c2ccc(C#N)c3ccccc23)CC1` was 128 to 129 °C; that for `N#CCc1cc(O)cc2cc(-c3ccc(O)cc3)oc12` was 128 to 130 °C.
For `CC1(C)c2cc(C#N)ccc2OC1N=C=S` (centres undefined), the melting point is 52 °C.
For the compound `CNC(=O)N1CCC(Oc2c(F)c(F)c(F)c(F)c2F)CC1`, the melting point fell in the range of 107 to 110 °C.
Regarding `COc1ccc2c(C(=O)O)c(OC)ccc2c1`, the melting point is 153 to 155 °C.
`COc1ccc(-n2nnc(-c3ccc(F)cc3Cl)c2N)cc1` had a melting point of 175 to 177 °C.
`Cc1cc(C)c(C2C(=O)CCCC2=O)c(C)c1` came in with a melting point of 196 to 198 °C.
With `CN(CCOc1ccc(C=CC=O)cc1F)c1ccccn1` the figure was 93 to 94 °C; with `CCC1=Nc2ccc(OCCN3C(=O)c4ccccc4C3=O)cc2C(=O)C1`, 168 to 171 °C.
With `CN(C)CCOC(=O)c1cc(F)ccc1Nc1ccnc2c(Cl)cccc12` the figure was 121 to 122 °C; with `CCOC(=O)C1=C(C)N(C(C)=O)C(c2csc(C)n2)=NC1c1ccc(C)cc1` (centres undefined), 187 to 188 °C.
Take `CC1(C)C(=O)N(Cc2ccccc2)C(=O)N1CC#CI`: the melting point fell in the range of 83 to 85 °C.
With `O=S(c1ccccc1)c1ccc2c(c1)C(O)C(Br)CCO2` (centres undefined) the figure was 147 to 149 °C.
In the case of `CN1CC(CCCl)Oc2ncc(-c3ccccc3)cc2C1=S` (centres undefined), the melting point is 156 to 158 °C.
In turn, `COCCOc1cc(C(F)(F)F)cnc1-c1nc(C)c(-c2ccnc(Nc3ccc(N4CCOCC4)cc3)n2)s1` returned a melting point of 175 to 178 °C.
Regarding `CCCCc1nc2cccc(C)c2c(=O)n1Cc1ccc(C2(C(=O)O)CC=CC2)s1`, the melting point was in the range of 150 to 151 °C.
`Cc1ccc(S(=O)(=O)Nc2nc(-c3cccc([N+](=O)[O-])c3)cs2)cc1` showed a melting point of 187 to 189 °C.
In turn, `CCOc1ccc(-c2nc(C)c(C(=O)O)s2)cc1Cl` had a melting point of 219 to 220 °C.
With `CCCCCC1(C)OCc2c1cnc(C)c2O` (centres undefined) the figure was 222 °C; with `CCn1c([N+](=O)[O-])cnc1C=CN(C)C`, 124 to 125 °C; with `CC1(C)OC(=S)Nc2ccc(-c3cccc(C#N)c3)cc21`, 236 to 237 °C.
`O=C(c1ccncc1)N1CCN=C1Nc1c(Cl)cccc1Cl` came in with a melting point of 82.5 to 83.5 °C.
In turn, `C=C(C)c1cnc(C2=NC(C)(C(C)C)C(=O)N2)c(C(=O)OC)c1` (centres undefined) came in with a melting point of 90.5 to 92.5 °C.
The value for `O=C(O)CCN1C(=O)CSC1=S` was 155 to 156 °C; that for `CN1C(=O)[C@H](NC(=O)CCc2ccc(Cl)cc2Cl)N=C(c2ccccc2)c2cc(NS(C)(=O)=O)ccc21` was 130 to 148 °C.
As to `CC(C)(C)OC(=O)NC1CCN(C2CCN(Cc3ccccc3)CC2)C1` (centres undefined), the melting point worked out at 118 °C.
The value for `CCOC(=O)c1nn(-c2ccccc2Cl)c(=O)c(C#N)c1C` was 93 to 95 °C; that for `CC(=O)SCCC(=O)NC1(C(=O)O)CCCC1` was 127 to 128 °C; that for `O=C1Cc2cc3c(cc2C(c2ccccc2Cl)N1)OCO3` (centres undefined) was 207 to 209 °C.
As for `COc1ccc2nc(CCCCCCC(=O)O)ccc2c1`, the melting point lay within 84 to 87 °C.
`O=C1NCCN=C1c1ccc(F)cc1` came in with a melting point of 118 to 120 °C.
The compound `COc1ccc(N2CCN(CCN3CC(C)(C)C3)C2=O)cc1Cl` showed a melting point of 93 to 95 °C.
As for `CCc1ccc2oc(-c3ccc(C=C4C(=O)C5(C)CCC4C5(C)C)cc3)nc2c1` (centres undefined), the melting point is 178 to 179 °C.
`CCOC(=O)c1[nH]nnc1Nc1ccccc1` yielded a melting point of 129 to 130 °C.
Consider `Cc1c(Cc2cccc(C(F)(F)F)c2)oc2c(-c3cc(C(=O)NCCC#N)ccn3)cccc12`, for which the melting point lay within 200 to 201 °C.
For `CCCCOc1nc(N)c2[nH]c(=O)n(CCCN(CCCN3CCOCC3)Cc3cccc(CC(=O)OC)c3)c2n1`, the melting point amounted to 153 °C.
With `CC12CC(C(F)F)C3C4CCC(=O)C=C4CCC3C1CCC2=O` (centres undefined) the figure was 149 to 151 °C.
As for `CSc1ccc(NC(=N)c2ccc(C(F)(F)F)cc2)cc1`, the melting point was 144 to 146 °C.
With `O=C1OC(c2ccccc2)C2CCc3cc(OCCCC(F)(F)F)ccc3N12` (centres undefined) the figure was 130 °C.
With `CCOc1cc(N)c(Cl)cc1C(=O)NC1CCN(CC2CCN(C(=S)N(C)C)CC2)CC1` the figure was 210 to 212 °C.
Compound `COc1ccc(C(=O)CCC(=O)O)cc1CO` gave a melting point of 217 to 218 °C.
Turning to `O=C(O)Cc1c(C(=O)c2cc(CO)ccn2)[nH]c2cc(Cl)ccc12`, the melting point was in the range of 210 to 212 °C.
Consider `CC(C)[C@H](NC(=O)c1ccc2ccccc2n1)C(=O)NC(Cc1ccccc1)C(O)CNCC(O)C(Cc1ccccc1)NC(=O)OC(C)(C)C` (some centres undefined), for which the melting point was in the range of 192 to 194 °C.
With `O=c1ccc(S(=O)(=O)c2cc3ccccc3o2)n[nH]1` the figure was 210 to 211 °C.
For `CNc1cc(SCC(C)O)c(N)cc1[N+](=O)[O-]` (centres undefined), the melting point is 152 °C.
`O=CC(=O)c1ccc(OCc2ccccc2)c(CO)c1`: the melting point lay in the range of 180 to 181 °C.
`Cn1ccnc1N=Cc1ccccc1` yielded a melting point of 71 to 72 °C.
For `COC(=O)NC1=NC(c2ccc(I)cc2)CN1` (centres undefined), the melting point fell in the range of 229 to 230 °C.
As for `CC(CC(=O)NO)c1cccc(Nc2ccccc2-c2n[nH]c(=S)o2)c1Cl` (centres undefined), the melting point lay in the range of 205 to 207 °C.
`Cc1nsc(OCC(F)(F)F)c1[N+](=O)[O-]` returned a melting point of 63 to 64 °C.
As for `Cc1ccc(S(=O)(=O)N(C)CC(=O)N[C@@H](Cc2ccccc2)C(=O)OCc2ccccc2)cc1` (Tos-[Sar]-Phe-OBn), the melting point fell in the range of 80 to 82 °C.
Take `COC(=O)C(Cc1ccc(OCc2nc3ccc(OC)cc3n2C)cc1)NS(C)(=O)=O` (centres undefined): the melting point lay in the range of 168 to 171 °C.
As to `CCc1cn2c(N)c(Cl)cc(C(=O)NCC3CCN(CCc4ccc(C(C)(C)C)cc4)CC3)c2n1`, the melting point was 220 °C.
The compound `O=C(O)c1ccc(COCc2csc3nc(C(=O)NCc4ccc(F)c(C(F)(F)F)c4)[nH]c(=O)c23)cc1` returned a melting point of 258 to 259 °C.
`CCCCCS(=O)(=O)NC(=O)CCc1ccc(OC(C)C)cc1Oc1ncc(C(F)(F)F)cc1Cl` displayed a melting point of 94 to 95 °C.
Turning to `O=C(c1ccc(O)cc1)C12CC3CC(C1)CC(C(=O)c1ccc(O)cc1)(C3)C2`, the melting point lay within 208 to 209 °C.
Turning to `CCOC(=O)c1nc(C)c(SC)c(O)n1`, the melting point came out at 139 °C.
The value for `COc1cc2c(cc1Nc1ncc(Cl)c(N[C@@H]3CCCC[C@H]3NS(C)(=O)=O)n1)CCN(C(=O)CN(C)C)CC2` was 128 to 141 °C; that for `O=C(c1ccccc1O)N1CCc2cc(S(=O)(=O)N3CC(c4ccccc4)NC3=O)ccc21` (centres undefined) was 221 °C; that for `COC(=O)c1ccccc1OCC(O)CNCCNC(=O)Cc1ccccc1` (centres undefined) was 114 to 115 °C.
The value for `CN1C(=O)C(C(=O)Nc2ccc(Cl)c(Cl)c2)S(=O)(=O)c2cc(Cl)ccc21` (centres undefined) was 176 to 178 °C.
The value for `Clc1cc2cc[nH]c2c(Cl)c1Cl` was 97.5 to 98 °C; that for `CS(=O)(=O)Nc1ccc(/C=C\COCCCCCCNCC(O)c2ccc(O)c(CO)c2)cc1` (centres undefined) was 113 to 116 °C; that for `Cn1c([N+](=O)[O-])cnc1COc1ccc(C(F)(F)F)cc1[N+](=O)[O-]` was 126 °C.
In the case of `FC(F)(F)CNc1ccc2c(c1)N1CCCN=C1S2`, the melting point is 187 °C.
The compound `CC(=O)c1nn(-c2c(Cl)cc(C(F)(F)F)cc2Cl)c(N)c1S(=O)(=O)c1ccc(Cl)cc1` gave a melting point of 158 °C.
With `Cc1cc(-n2ccc(OCc3ccc(OC(F)F)cc3)cc2=O)sc1C(=O)NCc1ccccc1` the figure was 178 to 180 °C; with `CCOC(=O)c1cc(C)n(-c2cccc(C(=O)O)c2)c1-c1ccccc1`, 161 to 163 °C.
In the case of `Cc1cc(CCCOc2c(C)cc(-c3noc(C(F)(F)F)n3)cc2C)on1`, the melting point fell in the range of 61 to 62 °C.
Compound `CC1COCc2nc3c(N)nc4ccc(OCc5ccccc5)cc4c3n21` (centres undefined) gave a melting point of 100 to 120 °C.
